Experimental data: PubChem BioAssay (NCI)
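The compound was tested at five concentrations on cells cultured in 96-well plates, with a 48-hour exposure period. GI50 = concentration required for 50% inhibition of growth. TGI: total growth inhibition.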

Columns and labels:
Assay in all cases: NCI anticancer screen, dose series, 48 h
UO-31 renal = tested on: UO-31 renal
NCI/ADR-RES ovarian = tested on: NCI/ADR-RES ovarian
LOX IMVI melanoma = tested on: LOX IMVI melanoma
NCI-H522 lung = tested on: NCI-H522 lung
CCRF-CEM leukemia = tested on: CCRF-CEM leukemia
NCI-H23 lung = tested on: NCI-H23 lung
U251 CNS = tested on: U251 CNS
UACC-62 melanoma = tested on: UACC-62 melanoma
OVCAR-5 ovarian = tested on: OVCAR-5 ovarian
HOP-92 NSCLC = tested on: HOP-92 NSCLC

| Structure (SMILES) | GI50 (UO-31 renal) | TGI (UO-31 renal) | GI50 (NCI/ADR-RES ovarian) | TGI (NCI/ADR-RES ovarian) | GI50 (LOX IMVI melanoma) | TGI (LOX IMVI melanoma) | GI50 (NCI-H522 lung) | TGI (NCI-H522 lung) | GI50 (CCRF-CEM leukemia) | TGI (CCRF-CEM leukemia) | GI50 (NCI-H23 lung) | TGI (NCI-H23 lung) | GI50 (U251 CNS) | TGI (U251 CNS) | GI50 (UACC-62 melanoma) | TGI (UACC-62 melanoma) | GI50 (OVCAR-5 ovarian) | TGI (OVCAR-5 ovarian) | GI50 (HOP-92 NSCLC) | TGI (HOP-92 NSCLC) |
| --- | --- | --- | --- | --- | --- | --- | --- | --- | --- | --- | --- | --- | --- | --- | --- | --- | --- | --- | --- | --- |
| CC(C)(C)CC(C)(C)NCc1cc(C(C)(C)C)cc(CNC(C)(C)CC(C)(C)C)c1O | 1.92 µM | 9.91 µM | 2.81 µM | 11.7 µM | 1.6 µM | 3.1 µM | 1.78 µM | 3.66 µM | 4.18 µM | 34.9 µM | 2.42 µM | 7.8 µM | 2.86 µM | 12.2 µM | 3.34 µM | 12.3 µM | 3.02 µM | 10 µM | 0.548 µM | 4.2 µM |
| CCOC(=O)CC1C(COC(=O)NC)OC(n2cnc3c(NC(=O)Nc4ccccc4)ncnc32)C1O[Si](C)(C)C(C)(C)C (configuration not stated) | 5.7 µM | 55.4 µM | 9.18 µM | 30.6 µM | 7.78 µM | 23 µM | 9.58 µM | > 100 µM | 3.23 µM | > 100 µM | 12.9 µM | 53 µM | 7.57 µM | 32.3 µM | 15.8 µM | > 100 µM | 12.8 µM | 39.7 µM | 6.52 µM | 28.9 µM |
| CCCC(CCC)C(=O)OCC1(CO)C/C(=C\c2ccc(F)cc2)C(=O)O1 (configuration not stated) | 8.35 µM | 24.4 µM | 13.9 µM | 33.4 µM | 11.2 µM | 24.5 µM | 14.5 µM | 30.4 µM | 0.0233 µM | 0.107 µM | 12.4 µM | 26.7 µM | 8.07 µM | 23.4 µM | 8.16 µM | 23.8 µM | 16.6 µM | 31.4 µM | 0.487 µM | 12.5 µM |
| COc1cc(-c2nc(-c3nc4ccccc4[nH]3)cc3c2[nH]c2ccccc23)cc(OC)c1OC | 3.62 µM | > 100 µM | 3.59 µM | > 100 µM | 4.72 µM | > 100 µM | 3.51 µM | > 100 µM | 3.96 µM | > 100 µM | 4.4 µM | > 100 µM | 4.76 µM | > 100 µM | 3.38 µM | > 100 µM | > 100 µM | > 100 µM | 0.526 µM | 5.38 µM |
| CC(C)(C)[Si](C)(C)OC1[C@@H](O[Si](C)(C)C(C)(C)C)[C@@H](CNC(=O)NC(=O)CCl)O[C@H]1n1cnc2c(NC(=O)Nc3ccccc3)ncnc21 (some centres not stated) | 0.0763 µM | 0.2 µM | 1.24 µM | 8.03 µM | 0.0829 µM | 0.18 µM | 0.096 µM | 0.196 µM | 0.0441 µM | 0.125 µM | 0.756 µM | 1.84 µM | 0.51 µM | 1.21 µM | 0.793 µM | 1.6 µM | 0.911 µM | 2.08 µM | 0.211 µM | 0.9 µM |
| Nc1ccn(C2OC(COC(=O)C34CC5CC(CC(C5)C3)C4)C(O)C2O)c(=O)n1 (configuration not stated) |  | > 100 µM |  | > 100 µM |  | > 100 µM |  | > 100 µM |  | 1.87 µM |  | > 100 µM |  | > 100 µM |  | > 100 µM |  | > 100 µM |  | > 100 µM |
| COc1ccc(OC)c2c1[nH]c(=O)c1c3ncccc3cn21 | 2.49 µM | > 100 µM | 2.56 µM | > 100 µM | 1.8 µM | 4.29 µM | 4.71 µM | > 100 µM | 3.32 µM | > 100 µM | 3.58 µM | > 100 µM | 3.63 µM | 27.8 µM | 4.43 µM | > 100 µM |  |  | 0.854 µM | 6.26 µM |
| Cc1cc(N2CCSCC2)nc(NC2CCCC(Nc3ccnc4cc(Cl)ccc34)C2)n1 (configuration not stated) | 1.41 µM | 2.77 µM | 2.01 µM | 5.15 µM |  |  |  |  | 2.62 µM | 10.9 µM | 2.55 µM | 7.99 µM | 1.91 µM | 3.7 µM | 1.94 µM | 3.5 µM | 2.88 µM | 14.1 µM | 1.65 µM | 3.45 µM |
| COc1ccc2nc3cc([N+](=O)[O-])ccc3c(NCCCN(C)C)c2c1 | 1.63 µM | 6.1 µM | 2.46 µM | 14.2 µM | 0.249 µM | 1.08 µM | 0.0199 µM | 0.0597 µM | 0.557 µM | 4.31 µM | 0.17 µM | 0.737 µM | 0.0441 µM | 0.375 µM | 0.384 µM | 1.64 µM | 0.768 µM | 4.51 µM | 0.149 µM | 0.651 µM |
| O=C(O)C(Cl)(c1ccccc1)c1ccccc1 |  | > 100 µM |  | > 100 µM |  | > 100 µM |  | > 100 µM |  | > 100 µM |  | > 100 µM |  | > 100 µM |  | > 100 µM |  | > 100 µM |  | > 100 µM |
| CNC(=O)Cc1nc(-c2cccc(NS(=O)(=O)c3c(F)cccc3F)c2F)c(-c2ccnc(Nc3ccccc3)n2)s1 | 1.22 µM | 13.7 µM | > 50 µM | > 50 µM | 0.0917 µM | 5.38 µM | 7.22 µM | > 50 µM | 11.3 µM | > 50 µM | 4.42 µM | > 50 µM | 22.7 µM | > 50 µM |  |  | 2.85 µM | > 50 µM | 0.355 µM | > 14.4 µM |
| COc1cc(Nc2nc3ccccc3cc2C(=O)Nc2ccc(F)c(F)c2)cc(OC)c1OC | 2.51 µM | 9.35 µM | 2.49 µM | 7.21 µM | 2.66 µM | 8.75 µM | 2.07 µM | 6.97 µM | 3.12 µM | > 100 µM | 2.84 µM | 8.51 µM | 3.36 µM | > 100 µM | 1.68 µM | 4.46 µM | 4.29 µM | > 100 µM | 1.98 µM | 5.75 µM |
| N#CC1=C(N)NC(N2CCOCC2)=NC12Nc1ccccc1N2 | 12.5 µM | 81.4 µM | 28.3 µM | 87 µM | 23.5 µM | 62.5 µM | 23.5 µM | 59.3 µM | > 100 µM | > 100 µM | 21.9 µM | > 100 µM | 52.6 µM | > 100 µM | 32.2 µM | 82.1 µM | 42.7 µM | > 100 µM | > 100 µM | > 100 µM |
